Experimental data: patent US5134137A, “Cephalosporin antibiotics” (The Upjohn Company, priority 1990, dated 1992)
≈ marks a conversion by molar mass, not a printed value. Read-outs that look alike come from different tables or passages of the source.

Assays:
Format in all cases: cell-based
Pasteurella hemolytica = assay: MIC (minimum inhibitory concentration), agar dilution, Pasteurella hemolytica; conditions: Pasteurella, read-out: MIC
Experimental: (§1) Stock solution of each test antibiotic compound were prepared to have a concentration of 2 mg. of the test compound per milliliter in sterile water of 0.1M ammonium acetate solution. The amount of each compound used was adjusted for base compound activity as calculated from the purity data for the selected batch of compound.
(§2) The dilution procedure described by Washington and Sutter [Manual of Clinical Microbiology, 3rd, Edit. (Lennett, E. H. et al, Eds.), pp. 453-458 (1980), American Society for Microbiology, Washington, D.C.] was modified so that serial concentrations of 128 to 0.0625 microgram/ml. in sterile water was obtained. Then 1.5 ml. aliquots of these test antibiotic dilution mixtures are added to 13.5 molten (50° C.) Mueller-Hinton agar. Each resulting mixture is poured into 15×100 mm, sterile Petri plates and allowed to dry at room temperature overnight.
(§3) Test bacterial cultures are maintained at -70° C. on glass beads. [See R. J. Yancey, Jr. et al, Amer. Jr. of Vet. Research, 48, No. 7, pp. 1050-1053, (1987)]. At least one bacteria-laden bead per culture is dropped into one ml. of brain heart infusion (BHI) broth for overnight culture at 37° C. in 5% V/V carbon dioxide in air atmosphere.
(§4) On the data of assay, 2 to 8 drops of the bacterial broth cultures are transferred to fresh BHI broth (1 ml.) and the mixture is incubated for 4 to 6 hours at 37° C. in a 5% V/V carbon dioxide in air atmosphere. The resulting cultures are then diluted to match a 0.5 MacFarland standard and further diluted 1:20 V/V with sterile saline solution.
(§5) A 0.001 ml. drop of the resulting mixture, containing approximately 10^3 to 10^4 colony forming units (CFU) of each test bacteria organism, is dispensed onto the surface of the test antibiotic compound test plates with a Steer's type replicator. The resulting innoculated plates are incubated 16 to 18 hours at 37° C. with a carbon dioxide atmosphere.
as §1, with “Stock solutions” for “Stock solution”
as §2, with “mm.” for “mm,”
as §2, with “for Microbiology.” for “for Microbiology,”, “15×100 mm.” for “15×100 mm,”
as §3, with “culture” for “cultures”
(§6) On the day of assay, 2 to 8 drops of the bacterial broth cultures are transferred to fresh BHI broth (1 ml.) and the mixture is incubated for 4 to 6 hours at 37° C. in a 5% V/V carbon dioxide in air atmosphere. […]

Pasteurella multocida = assay: MIC, agar dilution, Pasteurella multocida; conditions: Pasteurella multocida; strain UC9581; read-out: MIC
Experimental: as §1, §2, §3, §4, §5
as §1, with “Stock solutions” for “Stock solution”
as §2, with “mm.” for “mm,”
as §2, with “for Microbiology.” for “for Microbiology,”, “15×100 mm.” for “15×100 mm,”
as §3, with “culture” for “cultures”
as §6

Escherichia coli = assay: MIC, agar dilution, Escherichia coli; conditions: Escherichia coli, read-out: MIC
Experimental: as §1, §2, §3, §4, §5
as §1, with “Stock solutions” for “Stock solution”
as §2, with “mm.” for “mm,”
as §2, with “for Microbiology.” for “for Microbiology,”, “15×100 mm.” for “15×100 mm,”
as §3, with “culture” for “cultures”
as §6

Salmonella choleraesuis = assay: MIC, agar dilution, Salmonella choleraesuis; conditions: Salmonella enterica, read-out: MIC
Experimental: as §1, §2, §3, §4, §5
as §1, with “Stock solutions” for “Stock solution”
as §2, with “mm.” for “mm,”
as §2, with “for Microbiology.” for “for Microbiology,”, “15×100 mm.” for “15×100 mm,”
as §3, with “culture” for “cultures”
as §6

Salmonella typhimurium = assay: MIC, agar dilution, Salmonella typhimurium; conditions: Salmonella enterica, read-out: MIC
Experimental: as §1, §2, §3, §4, §5
as §1, with “Stock solutions” for “Stock solution”
as §2, with “mm.” for “mm,”
as §2, with “for Microbiology.” for “for Microbiology,”, “15×100 mm.” for “15×100 mm,”
as §3, with “culture” for “cultures”
as §6

[1] = tested on: Bordetella bronchiseptica; assay: MIC, agar dilution, Bordetella bronchiseptica; conditions: Bordetella bronchiseptica; strain UC6313; read-out: MIC
Experimental: as §1, §2, §3, §4, §5
as §1, with “Stock solutions” for “Stock solution”
as §2, with “mm.” for “mm,”
as §2, with “for Microbiology.” for “for Microbiology,”, “15×100 mm.” for “15×100 mm,”
as §3, with “culture” for “cultures”
as §6

Pseudomonas aeruginosa = assay: MIC, agar dilution, Pseudomonas aeruginosa; conditions: Pseudomonas aeruginosa, ATCC27853; strain ATCC 27853; read-out: MIC
Experimental: as §1, §2, §3, §4, §5
as §1, with “Stock solutions” for “Stock solution”
as §2, with “mm.” for “mm,”
as §2, with “for Microbiology.” for “for Microbiology,”, “15×100 mm.” for “15×100 mm,”
as §3, with “culture” for “cultures”
as §6

Staphylococcus aureus = assay: MIC, agar dilution, Staphylococcus aureus; conditions: Staphylococcus aureus, read-out: MIC
Experimental: as §1, §2, §3, §4, §5
as §1, with “Stock solutions” for “Stock solution”
as §2, with “mm.” for “mm,”
as §2, with “for Microbiology.” for “for Microbiology,”, “15×100 mm.” for “15×100 mm,”
as §3, with “culture” for “cultures”
as §6

Streptococcus agalactiae = assay: MIC, agar dilution, Streptococcus agalactiae; conditions: Streptococcus agalactiae, read-out: MIC
Experimental: as §1, §2, §3, §4, §5
as §1, with “Stock solutions” for “Stock solution”
as §2, with “mm.” for “mm,”
as §2, with “for Microbiology.” for “for Microbiology,”, “15×100 mm.” for “15×100 mm,”
as §3, with “culture” for “cultures”
as §6

Streptococcus bovis = assay: MIC, agar dilution, Streptococcus bovis; conditions: Streptococcus equinus; strain UC6281; read-out: MIC
Experimental: as §1, §2, §3, §4, §5
as §1, with “Stock solutions” for “Stock solution”
as §2, with “mm.” for “mm,”
as §2, with “for Microbiology.” for “for Microbiology,”, “15×100 mm.” for “15×100 mm,”
as §3, with “culture” for “cultures”
as §6

[2] = tested on: Streptococcus dysgalactiae; assay: MIC, agar dilution, Streptococcus dysgalactiae; conditions: Streptococcus dysgalactiae; strain UC251; read-out: MIC
Experimental: as §1, §2, §3, §4, §5
as §1, with “Stock solutions” for “Stock solution”
as §2, with “mm.” for “mm,”
as §2, with “for Microbiology.” for “for Microbiology,”, “15×100 mm.” for “15×100 mm,”
as §3, with “culture” for “cultures”
as §6

Enterococcus faecium = assay: MIC, agar dilution, Enterococcus faecium; conditions: Enterococcus faecium; strain UC241; read-out: MIC
Experimental: as §1, with “Stock solutions” for “Stock solution”
as §2, §3, §4, §5, §1
as §2, with “mm.” for “mm,”
as §2, with “for Microbiology.” for “for Microbiology,”, “15×100 mm.” for “15×100 mm,”
as §3, with “culture” for “cultures”
as §6

Enterococcus faecalis = assay: MIC, agar dilution, Enterococcus faecalis; conditions: Enterococcus faecalis; strain UC694; read-out: MIC
Experimental: as §1, with “Stock solutions” for “Stock solution”
as §2, §3, §4, §5, §1
as §2, with “mm.” for “mm,”
as §2, with “for Microbiology.” for “for Microbiology,”, “15×100 mm.” for “15×100 mm,”
as §3, with “culture” for “cultures”
as §6

Streptococcus suis = assay: MIC, agar dilution, Streptococcus suis; conditions: Streptococcus suis; strain 650-2; read-out: MIC
Experimental: as §1, §2, §3, §4, §5
as §1, with “Stock solutions” for “Stock solution”
as §2, with “mm.” for “mm,”
as §2, with “for Microbiology.” for “for Microbiology,”, “15×100 mm.” for “15×100 mm,”
as §3, with “culture” for “cultures”
as §6

Streptococcus uberis = assay: MIC, agar dilution, Streptococcus uberis; conditions: Streptococcus uberis, read-out: MIC
Experimental: as §1, §2, §3, §4, §5
as §1, with “Stock solutions” for “Stock solution”
as §2, with “mm.” for “mm,”
as §2, with “for Microbiology.” for “for Microbiology,”, “15×100 mm.” for “15×100 mm,”
as §3, with “culture” for “cultures”
as §6

Corynebacterium pyogenes = assay: MIC, agar dilution, Corynebacterium pyogenes; conditions: strain 213-2; read-out: MIC
Experimental: as §1, §2, §3, §4, §5
as §1, with “Stock solutions” for “Stock solution”
as §2, with “mm.” for “mm,”
as §2, with “for Microbiology.” for “for Microbiology,”, “15×100 mm.” for “15×100 mm,”
as §3, with “culture” for “cultures”
as §6

Micrococcus luteus = assay: MIC, agar dilution, Micrococcus luteus; conditions: Micrococcus luteus; strain UC130; read-out: MIC
Experimental: as §1, §2, §3, §4, §5
as §1, with “Stock solutions” for “Stock solution”
as §2, with “mm.” for “mm,”
as §2, with “for Microbiology.” for “for Microbiology,”, “15×100 mm.” for “15×100 mm,”
as §3, with “culture” for “cultures”
as §6

For `CO/N=C(\C(=O)N[C@@H]1C(=O)N2C(C(=O)O)=C(CSSc3ccc([N+](=O)[O-])cc3)CS[C@H]12)c1csc(N)n1` [Example 18], the MIC (Pasteurella hemolytica; strain UC6531) was 0.25 µg/mL (≈ 0.429 µM), the MIC (Pasteurella hemolytica; strain UC6532) was ≤ 0.06 µg/mL and the MIC (Pasteurella hemolytica; strain UC9582) was ≤ 0.06 µg/mL. For the same compound, the MIC (Pasteurella multocida) was ≤ 0.06 µg/mL, the MIC (Escherichia coli; strain UC3784) was 1 µg/mL (≈ 1.72 µM) and the MIC (Escherichia coli; strain UC6720) was 2 µg/mL (≈ 3.43 µM). It also gave an MIC (Escherichia coli; strain UC9670) of 1 µg/mL (≈ 1.72 µM), an MIC (Salmonella choleraesuis; CHOLERAESUIS / UC6073, strain UC6073) of 2 µg/mL (≈ 3.43 µM) and an MIC (Salmonella choleraesuis; CHOLERAESUIS / UC6077, strain UC6077) of 4 µg/mL (≈ 6.86 µM). For the same compound, the MIC (Salmonella typhimurium; TYPHIMURIUM / UC6162, strain UC6162) was 4 µg/mL (≈ 6.86 µM), the MIC (Salmonella typhimurium; TYPHIMURIUM / UC6164, strain UC6164) was 2 µg/mL (≈ 3.43 µM) and the MIC [1] was > 32 µg/mL. For the same compound, the MIC (Pseudomonas aeruginosa) was > 32 µg/mL, the MIC (Staphylococcus aureus; strain UC6093) was 2 µg/mL (≈ 3.43 µM) and the MIC (Staphylococcus aureus; strain UC6097) was 2 µg/mL (≈ 3.43 µM). For the same compound, the MIC (Staphylococcus aureus; strain UC9203) was 2 µg/mL (≈ 3.43 µM), the MIC (Streptococcus agalactiae; strain UC3947) was ≤ 0.06 µg/mL and the MIC (Streptococcus agalactiae; strain UC6892) was ≤ 0.06 µg/mL. The MIC (Streptococcus bovis) was ≤ 0.06 µg/mL, the MIC [2] was ≤ 0.06 µg/mL and the MIC (Enterococcus faecium) was > 32 µg/mL. For the same compound, the MIC (Enterococcus faecalis) was > 32 µg/mL, the MIC (Streptococcus suis) was ≤ 0.06 µg/mL and the MIC (Streptococcus uberis; strain UC3946) was 0.25 µg/mL (≈ 0.429 µM). The MIC (Streptococcus uberis; strain UC6159) was 8 µg/mL (≈ 13.7 µM), the MIC (Corynebacterium pyogenes) was 0.25 µg/mL (≈ 0.429 µM) and the MIC (Micrococcus luteus) was ≤ 0.06 µg/mL.
